Results on 15 compounds are retold here after PubChem BioAssay (NCI).

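Following 48 hours of exposure in 96-well plates, responses at five concentrations were used to interpolate endpoints linearly. TGI: concentration producing complete growth inhibition.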 Where only a bound is given, the exact number is not on record here.

Holding throughout (assay): inhibition of tumour cell growth, NCI panel, 48 h
Assay [1] deals with RPMI-8226 leukemia.
Assay [2] relates to SK-MEL-5 melanoma.
Assay [3] deals with T-47D breast.
The test system of assay [4] is HCT-116 colon.
Assay [5] deals with SK-MEL-28 melanoma.
Assay [6] relates to MOLT-4 leukemia.
Assay [7] deals with RXF 393 renal.
Assay [8] concerns SR leukemia.
For assay [9], the system named is HOP-62 NSCLC.
Assay [10] deals with CAKI-1 renal.
Assay [11] concerns SW-620 colon.
For assay [12], the system named is IGROV1 ovarian.
Assay [13] has as its system OVCAR-4 ovarian.
Assay [14] has as its system SK-MEL-2 melanoma.
For assay [15], the system named is TK-10 renal.
In assay [16] the test system is SNB-19 CNS.
Assay [17] deals with M14 melanoma.
Assay [18] relates to UACC-257 melanoma.
In assay [19] the test system is HOP-92 NSCLC.
Assay [20] has as its system HL-60(TB) leukemia.

For the compound `O=C1Nc2ccccc2C1S(=O)(=O)c1ccccc1` (stereo not drawn), the TGI in [1], in [2], in assay [3], in assay [4], in assay [5] and in assay [6] was > 100 µM each time. Further, the TGI in assay [7], in [8], in assay [9], in [10], in assay [11] and in [12] was > 100 µM throughout. Besides, the TGI in [13], in assay [14], in assay [15], in assay [16], in assay [17] and in assay [18] was > 100 µM throughout. Further, in [19], the TGI was > 100 µM.

As to `O=C(O)Cn1ccc(=O)c2c([N+](=O)[O-])cccc21`, the TGI in assay [2], in assay [3], in [4], in assay [20], in assay [5] and in assay [6] was > 100 µM in each case. The TGI in assay [8], in [9], in assay [10], in [11], in assay [12] and in [14] was > 100 µM throughout. Besides, the TGI in assay [15], in [16], in [17] and in assay [18] was > 100 µM throughout.

On to `O=C1c2ccccc2-n2c1nc1ccc(Cl)cc1c2=O`, for which the TGI in assay [1] is > 100 µM; in assay [2] it was > 100 µM; in assay [3], > 100 µM; in assay [4], > 100 µM; in assay [6], > 100 µM; in assay [7], 44.8 µM. For the same compound, the TGI in assay [8], in assay [9], in assay [10], in assay [11], in assay [12] and in assay [13] was > 100 µM each time. The TGI in assay [14], in assay [15], in [16], in [17], in assay [18] and in [19] was > 100 µM in each case.

Take `CSC1(Cc2ccccn2)C(=O)Nc2cccc([N+](=O)[O-])c21` (stereo not drawn): the TGI in assay [1], in assay [2], in assay [3], in assay [4], in [20] and in [5] was > 100 µM in each case. Also, the TGI in assay [6], in assay [8], in assay [9], in assay [10], in assay [11] and in assay [12] was > 100 µM each time. Moreover, the TGI in [13], in assay [14], in [15], in [16], in assay [17] and in [18] was > 100 µM each time. The TGI in assay [19] was > 100 µM.

For `COC(=O)C1(Cc2ccccc2)Cc2c(C)ccc(C)c2C1=O` (stereo not drawn), the TGI is 75.4 µM in assay [1]; 28.8 µM in assay [2]; > 100 µM in [3]; > 100 µM in assay [4]; 54 µM in [20]; > 100 µM in [5]. Further, the TGI in assay [6] is 57.5 µM; in assay [7], 83.1 µM; in assay [8] it was > 100 µM; in assay [9] it was > 100 µM; in assay [11], > 100 µM; in [12], > 100 µM. Also, the TGI in assay [13] is > 100 µM; in assay [15], > 100 µM; in assay [16] it was > 100 µM; in assay [17], 98.8 µM; in assay [18] it was 64.9 µM; in assay [19], 54.3 µM.

As to `COc1cccc(-c2[nH]c3cc4c(cc3c(=O)c2C(=O)O)OCO4)c1`, the TGI in assay [1], in assay [2], in assay [3], in [4], in assay [5] and in assay [6] was > 100 µM throughout. Besides, the TGI in assay [7], in [8], in [9], in [10], in [11] and in assay [12] was > 100 µM throughout. Further, the TGI in assay [13], in assay [14], in [16], in assay [17], in assay [18] and in [19] was > 100 µM each time.

With `Cn1cnnc1SC(F)(F)c1nc2ccccc2o1`, the TGI in [1], in assay [2], in assay [3], in assay [4], in assay [5] and in assay [6] was > 100 µM in each case. Also, the TGI in assay [7], in assay [8], in [9], in [10], in assay [11] and in assay [12] was > 100 µM each time. Besides, the TGI in assay [13], in assay [14], in assay [15], in [17], in assay [18] and in assay [19] was > 100 µM in each case.

For `CON(C)C(=O)C(C)NC(=O)OC(C)(C)C` (stereo not drawn), the TGI in assay [1], in assay [2], in assay [3], in assay [4], in assay [20] and in [5] was > 100 µM throughout. For the same compound, the TGI in assay [6], in assay [7], in assay [8], in [9], in assay [11] and in assay [12] was > 100 µM throughout. Also, the TGI in [15], in [16], in [17], in [18] and in assay [19] was > 100 µM each time.

For the compound `O=C(Nc1ccc(Cl)c(C(F)(F)F)c1)C(=O)c1c(O)c2ccccc2oc1=O`, the TGI in assay [1], in assay [2], in assay [3], in assay [4], in assay [5] and in assay [6] was > 100 µM in each case. For the same compound, the TGI in assay [7], in [8], in [9], in [10], in [11] and in [12] was > 100 µM in each case. The TGI in [13], in assay [14], in [15], in assay [16], in assay [17] and in [18] was > 100 µM each time. Further, the TGI in assay [19] is > 100 µM.

As for `O=C1CC(=O)NC(=NN2C(=O)/C(=C/c3ccc(Cl)cc3)N=C2c2ccccc2)N1`, the TGI is 58.2 µM in [1]; 32 µM in [2]; > 100 µM in [3]; 30.7 µM in assay [4]; 33.6 µM in [5]; 22.7 µM in assay [6]. For the same compound, the TGI was 30.1 µM in assay [7]; 21.3 µM in assay [8]; 30.2 µM in assay [9]; > 100 µM in assay [10]; 31.9 µM in assay [11]; 27.4 µM in assay [12]. For the same compound, the TGI was determined as 22.5 µM in [13]; 31.1 µM in [14]; 43.2 µM in assay [15]; 29.3 µM in assay [17]; 42 µM in assay [18]; 26.1 µM in assay [19].

As for `CCCCCC(/C=C/[C@@H]1[C@@H](C(O)CCCCCC(=O)OC)C(=O)C[C@H]1O[Si](C)(C)C(C)(C)C)OCOCCOC` (stereo partly drawn), the TGI in assay [1] was > 25.7 µM; in assay [2], 30.5 µM; in assay [3], 51.8 µM; in assay [4], 16.1 µM; in [5], 33.3 µM; in assay [6], 4.87 µM. Moreover, the TGI was 39.8 µM in [7]; > 31.6 µM in assay [8]; 31.6 µM in [9]; 32.2 µM in [10]; 29.3 µM in [11]; 20.9 µM in [12]. For the same compound, the TGI in assay [13] was 40.9 µM; in assay [14] it was 32.4 µM; in assay [15], 31.3 µM; in assay [16], 29 µM; in assay [17], 37.1 µM; in assay [18], 21.9 µM. This compound also showed a TGI in assay [19] of 46.2 µM.

As to `COC(=O)[C@]1(C)CCCC2(C)C3=C(CCC21)CC1(CC3)SCCS1` (stereo partly drawn), the TGI in assay [1], in assay [2], in assay [3], in assay [4], in [20] and in [5] was > 10 µM in each case. Moreover, the TGI in assay [6], in [8], in [9], in assay [10], in assay [11] and in [12] was > 10 µM each time. For the same compound, the TGI in assay [13], in assay [15], in assay [16], in assay [17], in [18] and in assay [19] was > 10 µM in each case.

For the compound `CC(=O)Oc1ccc(/C=C/C(=O)NCCOC(=O)/C=C/c2ccc(OC(C)=O)c(OC(C)=O)c2)cc1OC(C)=O`, the TGI in assay [1] is 90.5 µM; in [2], 47.1 µM; in assay [3] it was 98.9 µM; in [4], 39.2 µM; in assay [5], > 100 µM; in assay [6], > 100 µM. For the same compound, the TGI in [7] was 47.4 µM; in [8], > 100 µM; in assay [9], > 100 µM; in [10] it was > 100 µM; in assay [11], 61.8 µM; in [12] it was > 100 µM. In addition, the TGI is > 100 µM in assay [13]; > 100 µM in assay [14]; > 100 µM in assay [15]; > 100 µM in [16]; 74.5 µM in assay [17]; > 100 µM in assay [18]. This compound also yielded a TGI in assay [19] of 95.6 µM.

In the case of `CC(C)CCCC(C)[C@H]1CCC2[C@@H]3CCC4Cc5nc6c(nc5C[C@]4(C)C3CC[C@@]21C)CC1CC[C@@H]2C(CC[C@@]3(C)C2CC[C@@H]3O)[C@@]1(C)C6` (stereo partly drawn), the TGI in assay [1], in assay [2], in assay [3], in assay [4], in assay [20] and in assay [5] was > 100 µM in each case. The TGI in [6], in assay [7], in assay [8], in assay [9], in assay [11] and in [12] was > 100 µM in each case. Moreover, the TGI in assay [13], in assay [14], in [15], in assay [16], in assay [17] and in assay [18] was > 100 µM in each case. In addition, the TGI in assay [19] is > 100 µM.

For the compound `Cc1cc(OC(=O)Nc2ccc(Cl)cc2)ccc1C(=S)Nc1ccccc1`, the TGI in assay [1] is > 100 µM; in assay [2], > 100 µM; in [3] it was > 100 µM; in [4] it was > 100 µM; in assay [20] it was 53.7 µM; in assay [5], > 100 µM. Besides, the TGI in assay [6], in [8], in [9], in assay [10], in assay [11] and in [12] was > 100 µM each time. The TGI in assay [13], in [14], in assay [16], in assay [17], in [18] and in [19] was > 100 µM in each case.
